Assay results from US20230382889A1 (Volastra Therapeutics, Inc., priority 2022, published 2023).

Assays:
[1] = tested on: NIH:OVCAR-3 cells; test: Cell viability of KIF18a-sensitive cell lines, NIH:OVCAR-3 (Cell Titre-Glo, 7 days); format: cell-based; settings: Homo sapiens, OVCAR-3, 168 h; NIH:OVCAR3, 7 days; read-out: NIH:OVCAR3 IC50
Protocol: (§1) Cell lines were seeded as follows 24 hours before compound treatment: HCC15 (Korean Cell Line Bank) 600 cell/well, 95 μL of RPMI-1640 media supplemented with 100 units/mL penicillin, 100 units/mL streptomycin and 10% FBS; NIH:OVCAR-3 (ATCC), 1000 cell/well, 95 μL of RPMI-1640 media supplemented with 100 units/mL penicillin, 100 units/mL streptomycin, 0.01 mg/mL bovine insulin, and 20% FBS; JIMT-1 (Addexbio) 1000 cell/well, 95 μL of DMEM media supplemented with 100 units/mL penicillin, 100 units/mL streptomycin, and 10% FBS.
(§2) Test compounds were added to cells in a 20× dilution scheme by adding 5 μL of serially diluted compound to the plate, and the treated cells were incubated for an additional 7 days in a 37° C., 5% CO2 incubator. DMSO was used as the negative control (0% effect), and wells omitting cells were used as the positive control (100% effect). The cells were incubated for seven days, and cell viability determined via the Promega Cell Titre-Glo® Assay kit. Luminescence units were converted to ATP concentrations via an ATP standard curve (10 point, 2-fold dilution from 5 uM). % Inhibition was calculated for each well as: ([max−min]−[test−min])/[max−min]. IC50 values were calculated from concentration vs. % Inhibition data via a four-parameter variable slope model.

[2] = target: KIF18a-microtubule complex (Homo sapiens (Human), UniProt Q8NI77); test: Binding kinetics to KIF18a-microtubule complex (global progress curve analysis); settings: for kon (on-rate from binding kinetics assay) / koff: KIF18A 0.25 nM, up to 24 hr; for koff: read-out: koff (off-rate from binding kinetics assay) (converted); for Ki: koff/kon, read-out: KI (determined from binding kinetic assay koff/kon)
Protocol: Compound binding kinetics parameters (kon and koff) were determined by the method of global progress curve analysis (GPCA). […] ADP product levels were determined by the Promega® ADP-Glo assay.

[3] = tested on: HCC15 cells; test: Cell viability of KIF18a-sensitive cell lines, HCC15 (Cell Titre-Glo, 7 days); format: cell-based; settings: 168 h; HCC15, 7 days; read-out: HCC15 IC50
Protocol: as §1, §2

[4] = target: hKIF18A (1-374) (Homo sapiens (Human), UniProt Q8NI77); test: Inhibition of KIF18A microtubule-dependent ATPase activity (ADP-Glo); format: biochemical; settings: 4 nM hKIF18A (1-374)
How it was run: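 Reaction was started with pre-formed microtubules and ATP (0.2 mg/mL and 2.0 mM in the added mix) and run 60 min at 28 °C. ADP was read by ADP-Glo luminescence, and IC50 came from a four-parameter fit of % inhibition.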

[5] = tested on: JIMT-1 cells; test: Cell viability of KIF18a-sensitive cell lines, JIMT-1 (Cell Titre-Glo, 7 days); format: cell-based; settings: Homo sapiens, 168 h; JIMT-1, 7 days; read-out: JIMT-1 IC50
Protocol: as §1, §2

Chain of KIF18a-microtubule complex (Q8NI77 1-374, one chain of several): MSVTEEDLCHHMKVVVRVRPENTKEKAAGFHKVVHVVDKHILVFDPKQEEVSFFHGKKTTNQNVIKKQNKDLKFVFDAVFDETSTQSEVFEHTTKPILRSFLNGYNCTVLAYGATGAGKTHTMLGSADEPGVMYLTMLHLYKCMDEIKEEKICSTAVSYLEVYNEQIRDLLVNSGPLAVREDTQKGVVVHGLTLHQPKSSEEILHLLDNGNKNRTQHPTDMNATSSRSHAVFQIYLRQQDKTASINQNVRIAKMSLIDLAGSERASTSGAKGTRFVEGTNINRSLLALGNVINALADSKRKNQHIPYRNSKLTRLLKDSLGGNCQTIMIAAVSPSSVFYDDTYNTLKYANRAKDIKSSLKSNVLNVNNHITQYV
Chain of hKIF18A (1-374) (Q8NI77 1-374): as the sequence (Q8NI77 1-374, one chain of several) above

Compound	IC50 [1] [nM]	kon (on-rate from binding kinetics assay) [2] [M⁻¹ s⁻¹]	koff [2] [s⁻¹]	Ki [2] [nM]	disc. t1/2 (dissociation half-life ln(2)/koff) [2] [h]	IC50 [3] [nM]	IC50 [4] [nM]	IC50 [5] [nM]
CS(=O)(=O)Nc1ccc(-n2cc(-c3cccc(N4CCC(F)(F)CC4)n3)nn2)c(N2CCC3(CC2)CC3)c1 [Compound 11, N-(4-(4-(6-(4,4-difluoropiperidin-1-yl)pyridin-2-yl)-1H-1,2,3-triazol-1-yl)-3-(6-azaspiro[2.5]octan-6-yl)phenyl)methanesulfonamide]	23	36100	4.44e-06	0.13	43	13	23	9.1
CS(=O)(=O)Nc1ccc(-c2ncc(-c3cccc(N4CCC(F)(F)CC4)n3)[nH]2)c(N2CCC3(CC2)CC3)c1 [Compound 9, N-(4-(5-(6-(4,4-difluoropiperidin-1-yl)pyridin-2-yl)-1H-imidazol-2-yl)-3-(6-azaspiro[2.5]octan-6-yl)phenyl)methanesulfonamide]	200	6670	5.83e-05	8.7	3.3	110	21	100
Cc1cc(-c2cn(-c3ccc(NS(=O)(=O)CCO)cc3N3CCCCC3)nn2)nc(N2CCC(F)(F)CC2)n1 [Compound 67, N-(4-(4-(2-(4,4-difluoropiperidin-1-yl)-6-methylpyrimidin-4-yl)-1H-1,2,3-triazol-1-yl)-3-(piperidin-1-yl)phenyl)-2-hydroxyethane-1-sulfonamide]	47	12200	2.06e-05	1.7	9.4	51	22	66
O=S(=O)(CCO)Nc1ccc(-n2cc(-c3csc(N4CCC(F)(F)CC4)n3)nn2)c(N2CCC3(CC2)CC3)c1 [Compound 69, N-(4-(4-(2-(4,4-difluoropiperidin-1-yl)thiazol-4-yl)-1H-1,2,3-triazol-1-yl)-3-(6-azaspiro[2.5]octan-6-yl)phenyl)-2-hydroxyethane-1-sulfonamide]	32	36100	1.94e-05	0.53	9.9	29	6	38
Cc1cc(-c2cn(-c3ccc(NS(=O)(=O)CCO)cc3N3CCCCC3)nn2)nc(N2CCC(F)(F)CC2)c1 [Compound 68, N-(4-(4-(6-(4,4-difluoropiperidin-1-yl)-4-methylpyridin-2-yl)-1H-1,2,3-triazol-1-yl)-3-(piperidin-1-yl)phenyl)-2-hydroxyethane-1-sulfonamide]	21	21900	1.81e-05	0.82	11	28	12	30
CS(=O)(=O)Nc1ccc(-n2cc(-c3cccc(N4CCC(F)(F)CC4)n3)nn2)c(N2CCCCC2)c1 [Compound 15, N-(4-(4-(6-(4,4-difluoropiperidin-1-yl)pyridin-2-yl)-1H-1,2,3-triazol-1-yl)-3-(piperidin-1-yl)phenyl)methanesulfonamide]	18	21900	1.14e-05	0.52	17	12	6.6	12
O=S(=O)(CCO)Nc1ccc(-c2cn(-c3cncc(N4CCC(F)(F)CC4)n3)nn2)c(N2CCC3(CC2)CC3)c1 [Compound 96, N-(4-(1-(6-(4,4-difluoropiperidin-1-yl)pyrazin-2-yl)-1H-1,2,3-triazol-4-yl)-3-(6-azaspiro[2.5]octan-6-yl)phenyl)-2-hydroxyethane-1-sulfonamide]	28	–	–	–	–	17	4.4	44
Cc1cc(-n2cc(-c3ccc(NS(=O)(=O)CCO)cc3N3CCC4(CC3)CC4)nn2)nc(N2CCC(F)(F)CC2)n1 [Compound 87, N-(4-(1-(2-(4,4-difluoropiperidin-1-yl)-6-methylpyrimidin-4-yl)-1H-1,2,3-triazol-4-yl)-3-(6-azaspiro[2.5]octan-6-yl)phenyl)-2-hydroxyethane-1-sulfonamide]	49	–	–	–	–	43	27	90
CCS(=O)(=O)Nc1ccc(-n2cc(-c3cccc(S(=O)(=O)NC(C)(C)C)c3)nn2)c(N2CCC3(CC2)CC3)c1 [Compound 116, N-(tert-butyl)-3-(1-(4-(ethylsulfonamido)-2-(6-azaspiro[2.5]octan-6-yl)phenyl)-1H-1,2,3-triazol-4-yl)benzenesulfonamide]	3.9	–	–	–	–	3.6	14	6.3
Cc1cc(-c2cn(-c3ccc(NS(=O)(=O)CCO)cc3N3CCC4(CC3)CC4)nn2)nc(N2CC3C(C2)C3(F)F)n1 (stereo not shown) [Compound 73, N-(4-(4-(2-(6,6-difluoro-3-azabicyclo[3.1.0]hexan-3-yl)-6-methylpyrimidin-4-yl)-1H-1,2,3-triazol-1-yl)-3-(6-azaspiro[2.5]octan-6-yl)phenyl)-2-hydroxyethane-1-sulfonamide]	14	–	–	–	–	10	11	42
Cc1cc(-c2cn(-c3ccc(NS(=O)(=O)CCO)cc3N3CCC4(CC3)CC4)nn2)nc(N2CCCCC2)n1 [Compound 101, 2-hydroxy-N-(4-(4-(6-methyl-2-(piperidin-1-yl)pyrimidin-4-yl)-1H-1,2,3-triazol-1-yl)-3-(6-azaspiro[2.5]octan-6-yl)phenyl)ethane-1-sulfonamide]	27	–	–	–	–	16	17	27
CCS(=O)(=O)Nc1ccc(-n2cc(-c3cccc(N4CC(F)(F)C4)n3)nn2)c(N2CCC3(CC2)CC3)c1 [Compound 61, N-(4-(4-(6-(3,3-difluoroazetidin-1-yl)pyridin-2-yl)-1H-1,2,3-triazol-1-yl)-3-(6-azaspiro[2.5]octan-6-yl)phenyl)ethanesulfonamide]	16	–	–	–	–	15	8	15
O=S(=O)(Nc1ccc(-n2cc(-c3cccc(N4CCC(F)(F)CC4)n3)nn2)c(N2CCC3(CC2)CC3)c1)C1(CO)CC1 [Compound 62, N-(4-(4-(6-(4,4-difluoropiperidin-1-yl)pyridin-2-yl)-1H-1,2,3-triazol-1-yl)-3-(6-azaspiro[2.5]octan-6-yl)phenyl)-1-(hydroxymethyl)cyclopropane-1-sulfonamide]	13	–	–	–	–	13	18	9.5
O=S(=O)(CCO)Nc1ccc(-n2cc(-c3ccc(F)c(N4CCC(F)(F)CC4)n3)nn2)c(N2CCC3(CC2)CC3)c1 [Compound 79, N-(4-(4-(6-(4,4-difluoropiperidin-1-yl)-5-fluoropyridin-2-yl)-1H-1,2,3-triazol-1-yl)-3-(6-azaspiro[2.5]octan-6-yl)phenyl)-2-hydroxyethane-1-sulfonamide]	8.3	–	–	–	–	5.4	15	7.8
CCS(=O)(=O)Nc1ccc(-n2cc(-c3cc(C)nc(N4CCC(F)(F)CC4)n3)nn2)c(N2CCC3(CC2)CC3)c1 [Compound 106, N-(4-(4-(2-(4,4-difluoropiperidin-1-yl)-6-methylpyrimidin-4-yl)-1H-1,2,3-triazol-1-yl)-3-(6-azaspiro[2.5]octan-6-yl)phenyl)ethanesulfonamide]	25	–	–	–	–	18	32	24
CS(=O)(=O)Nc1ccc(-c2cn(-c3cccc(N4CCC(F)(F)CC4)n3)nn2)c(N2CCC3(CC2)CC3)c1 [Compound 29, N-(4-(1-(6-(4,4-difluoropiperidin-1-yl)pyridin-2-yl)-1H-1,2,3-triazol-4-yl)-3-(6-azaspiro[2.5]octan-6-yl)phenyl)methanesulfonamide]	21	–	–	–	–	25	18	23
